Read-outs that look alike come from different tables or passages of the source.
Tests used:
[1] = target: LCK (Homo sapiens, UniProt P06239); test: mobility shift assay (MSA)
[2] = target: T1, TEC (Homo sapiens, UniProt P42680); test: KINOMEscan binding assay; parameters: purchased Eurofins DiscoverX (KINOMEscan scanMAX service)
T1 sequence (P42680 1-631): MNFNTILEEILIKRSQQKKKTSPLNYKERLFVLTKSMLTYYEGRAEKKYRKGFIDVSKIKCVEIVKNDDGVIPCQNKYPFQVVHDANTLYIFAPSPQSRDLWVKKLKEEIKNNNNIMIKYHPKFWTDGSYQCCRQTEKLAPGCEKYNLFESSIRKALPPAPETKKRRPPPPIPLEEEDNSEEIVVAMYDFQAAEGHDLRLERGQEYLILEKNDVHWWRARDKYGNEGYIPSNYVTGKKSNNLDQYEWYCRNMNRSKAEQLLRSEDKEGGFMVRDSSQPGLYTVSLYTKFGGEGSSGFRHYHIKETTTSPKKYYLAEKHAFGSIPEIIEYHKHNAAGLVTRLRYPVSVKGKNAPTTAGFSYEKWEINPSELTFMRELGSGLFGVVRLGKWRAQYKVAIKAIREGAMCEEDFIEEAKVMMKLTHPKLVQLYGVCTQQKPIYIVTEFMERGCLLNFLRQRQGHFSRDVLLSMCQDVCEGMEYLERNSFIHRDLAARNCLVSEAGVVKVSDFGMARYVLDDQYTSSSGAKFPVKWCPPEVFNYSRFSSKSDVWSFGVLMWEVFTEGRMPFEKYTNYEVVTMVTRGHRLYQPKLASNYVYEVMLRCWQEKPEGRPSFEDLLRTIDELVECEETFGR

[3] = target: CSK (Homo sapiens, UniProt P41240); test: mobility shift assay (MSA)
[4] = target: EGFR(T790M) (Homo sapiens, UniProt P00533, T790M); test: biochemical; parameters: KINOMEscan scanMAX competition binding, DNA-tagged kinases, qPCR read-out, percent control at 300 nM
[5] = target: MAP3K15 (Homo sapiens, UniProt Q6ZN16); test: biochemical; parameters: KINOMEscan scanMAX competition binding, DNA-tagged kinases, qPCR read-out, percent control at 300 nM
[6] = target: KIT(L576P) (Homo sapiens, UniProt P10721, L576P); test: biochemical; parameters: KINOMEscan scanMAX competition binding, DNA-tagged kinases, qPCR read-out, percent control at 300 nM
[7] = target: KIT(A829P) (Homo sapiens, UniProt P10721, A829P); test: biochemical; parameters: KINOMEscan scanMAX competition binding, DNA-tagged kinases, qPCR read-out, percent control at 300 nM
[8] = target: GSK3A (Homo sapiens, UniProt P49840); test: biochemical; parameters: KINOMEscan scanMAX competition binding, DNA-tagged kinases, qPCR read-out, percent control at 300 nM
[9] = target: AKT2 (Homo sapiens, UniProt P31751); test: biochemical; parameters: KINOMEscan scanMAX competition binding, DNA-tagged kinases, qPCR read-out, percent control at 300 nM
[10] = target: NEK11 (Homo sapiens, UniProt Q8NG66); test: biochemical; parameters: KINOMEscan scanMAX competition binding, DNA-tagged kinases, qPCR read-out, percent control at 300 nM
[11] = target: PKMYT1 (Homo sapiens, UniProt Q99640); test: biochemical; parameters: KINOMEscan scanMAX competition binding, DNA-tagged kinases, qPCR read-out, percent control at 300 nM
[12] = target: T2, ERK1 (Homo sapiens, UniProt P27361); test: biochemical; parameters: KINOMEscan scanMAX competition binding, DNA-tagged kinases, qPCR read-out, percent control at 300 nM
T2 construct: gene MAPK3

[13] = target: T3, ASK2 (Homo sapiens, UniProt O95382); test: biochemical; parameters: KINOMEscan scanMAX competition binding, DNA-tagged kinases, qPCR read-out, percent control at 300 nM
T3 construct: gene MAP3K6

[14] = target: CIT (Homo sapiens, UniProt O14578); test: biochemical; parameters: KINOMEscan scanMAX competition binding, DNA-tagged kinases, qPCR read-out, percent control at 300 nM
[15] = target: MET(Y1235D) (Homo sapiens, UniProt P08581, Y1235D); test: biochemical; parameters: KINOMEscan scanMAX competition binding, DNA-tagged kinases, qPCR read-out, percent control at 300 nM
[16] = target: T4, DCAMKL2 (Homo sapiens, UniProt Q8N568); test: biochemical; parameters: KINOMEscan scanMAX competition binding, DNA-tagged kinases, qPCR read-out, percent control at 300 nM
T4 construct: gene DCLK2

[17] = target: T5, ABL1(E255K)-phosphorylated (Homo sapiens, UniProt P00519, E255K); test: biochemical; parameters: KINOMEscan scanMAX competition binding, DNA-tagged kinases, qPCR read-out, percent control at 300 nM
T5 construct: phosphorylated

[18] = target: SNRK (Homo sapiens, UniProt Q9NRH2); test: biochemical; parameters: KINOMEscan scanMAX competition binding, DNA-tagged kinases, qPCR read-out, percent control at 300 nM
[19] = target: EPHB4 (Homo sapiens, UniProt P54760); test: biochemical; parameters: KINOMEscan scanMAX competition binding, DNA-tagged kinases, qPCR read-out, percent control at 300 nM
[20] = read-out: Percent control / Ibrutinib
[21] = read-out: Percent control / Zanubrutinib
[22] = read-out: Percent control / Acalabrutinib

Chain of MAP3K15 (Q6ZN16 whole entry): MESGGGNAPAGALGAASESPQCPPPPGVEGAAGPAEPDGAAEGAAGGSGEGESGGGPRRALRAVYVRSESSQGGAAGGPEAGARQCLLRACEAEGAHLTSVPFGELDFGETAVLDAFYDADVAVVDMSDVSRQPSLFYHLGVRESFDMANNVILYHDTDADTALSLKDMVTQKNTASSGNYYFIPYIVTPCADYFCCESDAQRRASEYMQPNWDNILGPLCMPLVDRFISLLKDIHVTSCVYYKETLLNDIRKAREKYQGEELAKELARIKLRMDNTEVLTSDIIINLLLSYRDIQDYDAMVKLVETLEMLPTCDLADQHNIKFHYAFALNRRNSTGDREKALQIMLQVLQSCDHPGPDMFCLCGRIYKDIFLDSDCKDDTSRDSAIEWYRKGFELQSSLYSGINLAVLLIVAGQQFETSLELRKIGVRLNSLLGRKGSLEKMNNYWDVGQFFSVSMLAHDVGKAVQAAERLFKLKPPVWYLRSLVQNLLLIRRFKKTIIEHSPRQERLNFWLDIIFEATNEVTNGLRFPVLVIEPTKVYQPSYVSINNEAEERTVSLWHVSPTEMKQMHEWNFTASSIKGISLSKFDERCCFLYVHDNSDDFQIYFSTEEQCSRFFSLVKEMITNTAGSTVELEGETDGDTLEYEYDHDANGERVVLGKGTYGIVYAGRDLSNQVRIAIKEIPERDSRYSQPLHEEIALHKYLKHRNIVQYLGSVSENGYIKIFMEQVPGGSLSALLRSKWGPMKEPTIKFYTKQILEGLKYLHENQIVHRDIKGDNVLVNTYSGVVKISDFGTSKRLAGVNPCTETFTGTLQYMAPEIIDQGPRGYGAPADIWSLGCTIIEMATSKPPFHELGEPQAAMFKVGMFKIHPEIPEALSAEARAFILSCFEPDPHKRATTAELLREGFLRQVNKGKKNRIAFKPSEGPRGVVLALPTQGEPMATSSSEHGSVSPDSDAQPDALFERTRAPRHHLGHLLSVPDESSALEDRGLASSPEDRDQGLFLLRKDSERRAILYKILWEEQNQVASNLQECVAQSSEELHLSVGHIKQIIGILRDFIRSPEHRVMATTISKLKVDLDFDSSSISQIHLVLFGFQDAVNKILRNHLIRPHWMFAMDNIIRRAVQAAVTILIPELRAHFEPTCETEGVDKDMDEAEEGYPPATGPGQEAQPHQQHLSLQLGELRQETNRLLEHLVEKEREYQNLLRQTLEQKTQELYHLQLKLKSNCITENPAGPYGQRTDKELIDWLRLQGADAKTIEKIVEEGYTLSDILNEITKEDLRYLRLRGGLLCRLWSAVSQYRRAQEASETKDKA
T2 sequence (P27361 whole entry): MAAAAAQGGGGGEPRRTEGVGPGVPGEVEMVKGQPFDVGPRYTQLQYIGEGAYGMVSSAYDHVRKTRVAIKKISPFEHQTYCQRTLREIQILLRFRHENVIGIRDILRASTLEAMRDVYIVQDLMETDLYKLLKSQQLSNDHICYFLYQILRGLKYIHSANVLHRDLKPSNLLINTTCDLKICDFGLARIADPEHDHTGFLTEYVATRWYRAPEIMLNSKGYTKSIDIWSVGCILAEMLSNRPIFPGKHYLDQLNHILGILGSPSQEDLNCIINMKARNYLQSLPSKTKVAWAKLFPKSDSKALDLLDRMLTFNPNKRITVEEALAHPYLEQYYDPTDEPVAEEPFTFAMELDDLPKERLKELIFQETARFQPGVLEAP
Chain of MET(Y1235D) (P08581 whole entry Y1235D): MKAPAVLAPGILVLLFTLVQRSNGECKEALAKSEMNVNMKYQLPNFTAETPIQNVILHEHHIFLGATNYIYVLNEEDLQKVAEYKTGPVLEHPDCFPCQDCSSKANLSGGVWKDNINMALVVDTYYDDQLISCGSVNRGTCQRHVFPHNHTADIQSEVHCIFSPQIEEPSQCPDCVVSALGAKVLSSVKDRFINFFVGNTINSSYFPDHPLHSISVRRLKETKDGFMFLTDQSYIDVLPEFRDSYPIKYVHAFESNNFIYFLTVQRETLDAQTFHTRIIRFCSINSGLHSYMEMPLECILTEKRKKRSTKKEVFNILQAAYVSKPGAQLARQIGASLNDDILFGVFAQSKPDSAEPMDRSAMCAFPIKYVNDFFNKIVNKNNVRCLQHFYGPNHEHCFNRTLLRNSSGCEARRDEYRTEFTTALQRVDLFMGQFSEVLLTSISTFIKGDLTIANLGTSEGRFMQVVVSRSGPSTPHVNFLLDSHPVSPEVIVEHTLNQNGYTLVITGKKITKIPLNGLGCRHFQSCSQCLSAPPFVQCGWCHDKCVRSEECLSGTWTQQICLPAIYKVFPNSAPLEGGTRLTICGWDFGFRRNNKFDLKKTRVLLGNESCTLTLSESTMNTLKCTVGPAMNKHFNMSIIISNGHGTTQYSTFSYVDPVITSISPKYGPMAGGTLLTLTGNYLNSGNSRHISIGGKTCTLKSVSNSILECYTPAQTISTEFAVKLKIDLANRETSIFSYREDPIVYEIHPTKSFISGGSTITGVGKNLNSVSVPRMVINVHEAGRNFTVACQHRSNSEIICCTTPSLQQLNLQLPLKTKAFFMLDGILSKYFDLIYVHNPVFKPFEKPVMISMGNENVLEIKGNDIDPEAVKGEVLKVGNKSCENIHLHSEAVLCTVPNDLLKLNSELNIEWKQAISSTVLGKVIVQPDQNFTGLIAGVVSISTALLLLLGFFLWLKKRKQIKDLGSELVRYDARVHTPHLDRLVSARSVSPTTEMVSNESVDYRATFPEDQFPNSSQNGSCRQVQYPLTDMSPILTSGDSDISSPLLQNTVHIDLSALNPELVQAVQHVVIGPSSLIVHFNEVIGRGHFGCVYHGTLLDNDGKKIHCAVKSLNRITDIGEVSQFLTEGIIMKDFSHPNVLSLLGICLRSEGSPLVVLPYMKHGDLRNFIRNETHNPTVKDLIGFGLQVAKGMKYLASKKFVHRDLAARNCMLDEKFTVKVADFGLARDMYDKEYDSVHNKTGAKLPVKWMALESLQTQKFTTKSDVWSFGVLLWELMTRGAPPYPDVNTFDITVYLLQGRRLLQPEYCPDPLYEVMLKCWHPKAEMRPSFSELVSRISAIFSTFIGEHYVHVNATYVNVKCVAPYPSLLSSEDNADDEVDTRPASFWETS
Chain of KIT(A829P) (P10721 whole entry A829P): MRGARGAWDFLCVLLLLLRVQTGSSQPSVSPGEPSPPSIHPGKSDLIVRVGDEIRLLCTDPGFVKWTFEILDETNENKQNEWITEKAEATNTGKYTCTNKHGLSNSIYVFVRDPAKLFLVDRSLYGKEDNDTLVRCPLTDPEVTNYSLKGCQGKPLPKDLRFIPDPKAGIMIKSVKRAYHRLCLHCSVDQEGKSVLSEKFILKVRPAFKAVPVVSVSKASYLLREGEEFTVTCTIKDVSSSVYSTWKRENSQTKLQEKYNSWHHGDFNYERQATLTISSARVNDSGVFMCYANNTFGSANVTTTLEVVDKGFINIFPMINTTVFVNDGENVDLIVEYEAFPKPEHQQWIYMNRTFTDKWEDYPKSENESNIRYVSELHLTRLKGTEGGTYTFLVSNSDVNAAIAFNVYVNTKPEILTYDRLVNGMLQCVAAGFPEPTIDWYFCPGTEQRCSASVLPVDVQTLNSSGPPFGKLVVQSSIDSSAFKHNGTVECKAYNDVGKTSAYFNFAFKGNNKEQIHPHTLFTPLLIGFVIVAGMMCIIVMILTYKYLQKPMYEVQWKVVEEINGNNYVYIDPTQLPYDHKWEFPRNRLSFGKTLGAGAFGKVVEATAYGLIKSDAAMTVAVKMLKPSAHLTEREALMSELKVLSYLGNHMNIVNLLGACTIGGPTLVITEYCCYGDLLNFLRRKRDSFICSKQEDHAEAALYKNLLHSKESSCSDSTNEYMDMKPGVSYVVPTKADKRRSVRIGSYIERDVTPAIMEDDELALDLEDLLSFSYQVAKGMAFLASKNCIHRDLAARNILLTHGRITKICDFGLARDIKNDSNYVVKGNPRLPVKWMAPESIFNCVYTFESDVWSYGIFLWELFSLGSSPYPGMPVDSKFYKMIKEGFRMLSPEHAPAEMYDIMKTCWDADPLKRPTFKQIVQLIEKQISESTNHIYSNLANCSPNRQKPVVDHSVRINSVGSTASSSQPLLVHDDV
Chain of SNRK (Q9NRH2 whole entry): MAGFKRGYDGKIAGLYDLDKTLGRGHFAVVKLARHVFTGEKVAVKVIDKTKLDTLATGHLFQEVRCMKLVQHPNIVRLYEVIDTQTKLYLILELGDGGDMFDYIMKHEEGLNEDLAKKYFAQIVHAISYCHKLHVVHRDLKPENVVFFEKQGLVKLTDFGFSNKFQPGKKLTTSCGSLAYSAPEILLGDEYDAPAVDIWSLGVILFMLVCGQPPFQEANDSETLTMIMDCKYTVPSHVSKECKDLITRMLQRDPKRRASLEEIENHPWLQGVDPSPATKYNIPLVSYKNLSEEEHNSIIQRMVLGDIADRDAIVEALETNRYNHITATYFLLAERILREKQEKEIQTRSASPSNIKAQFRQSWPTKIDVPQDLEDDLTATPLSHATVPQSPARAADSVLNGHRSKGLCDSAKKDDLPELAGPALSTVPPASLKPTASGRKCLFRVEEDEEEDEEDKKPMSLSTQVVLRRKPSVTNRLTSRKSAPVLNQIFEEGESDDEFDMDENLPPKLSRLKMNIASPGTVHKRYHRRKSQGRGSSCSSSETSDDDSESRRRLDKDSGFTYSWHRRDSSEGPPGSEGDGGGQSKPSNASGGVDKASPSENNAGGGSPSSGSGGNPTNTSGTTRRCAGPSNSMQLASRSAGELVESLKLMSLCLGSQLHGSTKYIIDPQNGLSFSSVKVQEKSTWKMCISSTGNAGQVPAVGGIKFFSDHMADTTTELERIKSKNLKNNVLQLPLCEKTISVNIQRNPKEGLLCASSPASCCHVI
Chain of KIT(L576P) (P10721 whole entry L576P): as the sequence (P10721 whole entry A829P) above, with L576P, P829A counted along it

For `CC#CC(=O)N1CC[C@@H](n2c(=O)n(-c3ccc(Oc4ccccc4)cc3)c3c(N)ncnc32)C1` [Tirabrutinib], the IC50 [1] was 788 nM, the inhibition at 0.3 µM ([2]; 300 nM, read-out: inhibition of kinase binding (KINOMEscan)) was 92.2% and the IC50 [3] was 449 nM. It also gave a remaining binding at 0.3 µM ([4]; read-out: Percent control / Tirabrutinib) of 75%.
Work on `C=CC(=O)N1CCC[C@@H](n2nc(-c3ccc(Oc4ccccc4)cc3)c3c(N)ncnc32)C1` [Ibrutinib] yielded a remaining binding at 0.3 µM [5, 20] of 96% and a remaining binding at 0.3 µM [6, 20] of 72%.
Work on `C=CC(=O)N1CCC([C@@H]2CCNc3c(C(N)=O)c(-c4ccc(Oc5ccccc5)cc4)nn32)CC1` [Zanubrutinib] yielded a Percent control ([2]; kinase TEC (Entrez TEC)) of 20%, a remaining binding at 0.3 µM [7, 21] of 97% and a remaining binding at 0.3 µM [8, 21] of 98%. The remaining binding at 0.3 µM [9, 21] was 82%, the remaining binding at 0.3 µM [5, 21] was 54% and the remaining binding at 0.3 µM [10, 21] was 98%. For the same compound, the remaining binding at 0.3 µM [11, 21] was 81%, the remaining binding at 0.3 µM [12, 21] was 87% and the remaining binding at 0.3 µM [13, 21] was 55%. It also gave a remaining binding at 0.3 µM [14, 21] of 100%, a remaining binding at 0.3 µM [15, 21] of 88% and a remaining binding at 0.3 µM [16, 21] of 91%. The remaining binding at 0.3 µM [17, 21] was 80%, the remaining binding at 0.3 µM [18, 21] was 90% and the remaining binding at 0.3 µM [19, 21] was 87%.
Work on `CC#CC(=O)N1CCC[C@H]1c1nc(-c2ccc(C(=O)Nc3ccccn3)cc2)c2c(N)nccn12` [Acalabrutinib] yielded an IC50 [1] of 5200 nM, an IC50 [3] of 6650 nM and a remaining binding at 0.3 µM [7, 22] of 80%. It also gave a remaining binding at 0.3 µM [8, 22] of 74%, a remaining binding at 0.3 µM [9, 22] of 87% and a remaining binding at 0.3 µM [10, 22] of 97%. It also gave a remaining binding at 0.3 µM [11, 22] of 94%, a remaining binding at 0.3 µM [12, 22] of 92% and a remaining binding at 0.3 µM [4, 22] of 93%. It also gave a remaining binding at 0.3 µM [13, 22] of 87%, a remaining binding at 0.3 µM [14, 22] of 81% and a remaining binding at 0.3 µM [15, 22] of 86%. For the same compound, the remaining binding at 0.3 µM [16, 22] was 90%, the remaining binding at 0.3 µM [6, 22] was 86% and the remaining binding at 0.3 µM [17, 22] was 95%. It also gave a remaining binding at 0.3 µM [18, 22] of 93% and a remaining binding at 0.3 µM [19, 22] of 93%.
